Test results taken from ChEMBL document CHEMBL3877286, “Green fluorescent protein chromophore derivatives as a new class of aldose reductase inhibitors” (Eur J Med Chem, 2017).

Each compound was assayed against T1, Aldo-keto reductase family 1 member B1 (Homo sapiens, UniProt P15121) (assay: Inhibition of recombinant human ALR2 assessed as reduction in NADPH oxidation measured for 5 mins in presence of D,L-glyceraldehyde by spectrophotometric method).

Compared with `CCOC(=O)CN1C(=O)/C(=C/c2ccc(O)cc2)N=C1C`, `CC1=N/C(=C\c2ccc(O)cc2)C(=O)N1CC(=O)O` is 64-fold lower in IC50: 23000 nM for the first, 360 nM for the second.

Compared with `CC1=N/C(=C\c2ccc(OCC(=O)O)cc2)C(=O)N1CC(=O)O`, `COc1ccc(/C=C2\N=C(C)N(CC(=O)O)C2=O)cc1` is 1.6-fold higher in IC50: 310 nM for the first, 510 nM for the second. The first is the more potent here.

First: CC1=N/C(=C\c2ccc(O)cc2)C(=O)N1CCC(=O)O
Second: CC1=N/C(=C\c2ccc(Br)cc2)C(=O)N1CC(=O)O
The IC50 of the first is 45-fold higher: 10700 nM for the first, 240 nM for the second.

Compared with `CC1=N/C(=C\c2ccccc2)C(=O)N1CC(=O)O`, `CCOC(=O)CN1C(=O)/C(=C/c2ccccc2)N=C1C` is 190-fold higher in IC50: 580 nM for the first, 112000 nM for the second. The first is the more potent here.

Compared with `CC1=N/C(=C\c2cc(C)c(O)c(C)c2)C(=O)N1CC(=O)O`, `CC1=N/C(=C\c2cccc(O)c2)C(=O)N1CC(=O)O` is 25-fold higher in IC50: 130 nM for the first, 3200 nM for the second. The first is the more potent here.

First: CC1=N/C(=C\c2ccc(F)cc2)C(=O)N1CC(=O)O
Second: CC1=N/C(=C\c2ccc(Cl)cc2)C(=O)N1CC(=O)O
The IC50 of the first is 2.4-fold higher: 650 nM for the first, 270 nM for the second.

First: CC1=N/C(=C\c2ccc3ccccc3c2)C(=O)N1CC(=O)O
Second: CC1=N/C(=C\c2cccc3ccccc23)C(=O)N1CC(=O)O
The IC50 of the first is 5.4-fold lower: 100 nM for the first, 540 nM for the second. The first is the more potent here.

`CCOC(=O)COc1ccc(/C=C2\N=C(C)N(CC(=O)OCC)C2=O)cc1` showed an IC50 of 109000 nM.

These compounds were tested against T1, Aldo-keto reductase family 1 member B1 (assay: Inhibition of recombinant human ALR2 assessed as reduction in NADPH oxidation at 13 uM measured for 5 mins in presence of D,L-glyceraldehyde by spectrophotometric method relative to control).

For `CCOC(=O)CN1C(=O)/C(=C/c2ccc(Cl)cc2)N=C1C`, the inhibition was 16%.

What follows are compounds tested against T1, Aldo-keto reductase family 1 member B1 (assay: Potency index, ratio of sorbinil IC50 to compound IC50 for recombinant human ALR2).

`CC1=N/C(=C\c2ccc(O)cc2)C(=O)N1CC(=O)O` gave a Ratio IC50 of 6.
